Test results as given in patent US20230087118A1, “IMIDAZO[1,2-a][sequence] DERIVATIVES AND THEIR USE IN THE TREATMENT OF DISEASE” (priority 2019, published 2023).
Where a name gives a salt, the structure may show the parent alone. Read-outs that look alike come from different tables or passages of the source.

Biological target: T1, IRAK4 (Homo sapiens, UniProt Q9NWZ3)
T1 sequence (Q9NWZ3 1-460): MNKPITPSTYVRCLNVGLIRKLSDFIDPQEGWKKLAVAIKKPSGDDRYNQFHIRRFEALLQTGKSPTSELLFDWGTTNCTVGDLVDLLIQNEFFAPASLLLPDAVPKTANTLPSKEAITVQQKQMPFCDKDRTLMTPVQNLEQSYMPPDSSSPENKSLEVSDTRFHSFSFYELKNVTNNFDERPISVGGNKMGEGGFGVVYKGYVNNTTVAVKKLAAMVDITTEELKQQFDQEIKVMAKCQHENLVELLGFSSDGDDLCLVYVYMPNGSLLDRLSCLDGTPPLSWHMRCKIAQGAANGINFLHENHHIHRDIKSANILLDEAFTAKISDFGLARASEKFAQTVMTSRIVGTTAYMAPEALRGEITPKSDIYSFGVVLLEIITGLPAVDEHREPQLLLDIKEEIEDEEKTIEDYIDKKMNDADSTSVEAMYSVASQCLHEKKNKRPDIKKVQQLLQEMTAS
Experiment: biochemical

[1] = IRAK4 Biochemical Assay (1 mM ATP, 2 h) IC50 (μM), 1 mM ATP, 2 h, 100 pM IRAK4

SMILES | IC50 | IC50 [1]
COCCCc1cn2cc(C(=O)Nc3cccc(OC)n3)c(OC(C)C)cc2n1 [Example 103, 7-Isopropoxy-2-(3-methoxypropyl)-N-(6-methoxypyridin-2-yl)imidazo[1,2-a]pyridine-6-carboxamide] | 0.0032 µM | –
Cc1nocc1NC(=O)c1cn2cc(C34CCC(C)(C3)OC4)nc2cc1OC(C)C (centres unmarked) [Example 507, 7-Isopropoxy-2-(1-methyl-2-oxabicyclo[2.2.1]heptan-4-yl)-N-(3-methylisoxazol-4-yl)imidazo[1,2-a]pyridine-6-carboxamide] | 0.0095 µM | –
CC1(C)CC(Oc2cc3nc(C45COC(C)(C4)C5)cn3cc2C(=O)Nc2cccn(C(F)F)c2=O)C1 [Example 445, N-(1-(difluoromethyl)-2-oxo-1,2-dihydropyridin-3-yl)-7-(3,3-dimethylcyclobutoxy)-2-(1-methyl-2-oxabicyclo[2.1.1]hexan-4-yl)imidazo[1,2-a]pyridine-6-carboxamide] | 0.0006 µM | –
CCOc1nc(C(=O)Nc2ccn(CC3CC3)n2)cn2cc(C34CCC(C)(C3)OC4)nc12 (centres unmarked) [Example 282, N-(1-(cyclopropylmethyl)-1H-pyrazol-3-yl)-8-ethoxy-2-(1-methyl-2-oxabicyclo[2.2.1]heptan-4-yl)imidazo[1,2-a]pyrazine-6-carboxamide] | 0.0087 µM | –
COc1cnccc1NC(=O)c1cn2cc(C3CCOCC3)nc2cc1OC [Example 195] | 0.123 µM | –
CC(C)Oc1cc2nc([C@@]34CC[C@@H](C3)OC4)cn2cc1C(=O)Nc1cnn2cccnc12 (single isomer, unassigned) [Example 582] | 0.0006 µM | –
COc1cc2nc(C3CCOCC3)cn2cc1C(=O)Nc1cccc(Cl)c1F [Example 114] | 0.0153 µM | –
O=C(Nc1cccc(C(F)F)n1)c1cn2cc(C3CC3)nc2cc1OCC1CC2CCC1O2 (centres unmarked) [Example 470, 7-((7-Oxabicyclo[2.2.1]heptan-2-yl)methoxy)-2-cyclopropyl-N-(6-(difluoromethyl)pyridin-2-yl)imidazo[1,2-a]pyridine-6-carboxamide] | – | 0.0015 µM
CC(C)Oc1nc2nc(C34CCC(C)(CC3)OC4)cn2cc1C(=O)Nc1cnn2cccnc12 [Example 431] | 0.0008 µM | –
CC(C)Oc1nc2nc([C@@]34CC[C@@](C)(C3)OC4)cn2cc1C(=O)Nc1cccn(C(F)F)c1=O (single isomer, unassigned) [Example 628] | 0.0001 µM | –
CC(C)Oc1nc2nc(C34COC(C)(C3)C4)cn2cc1C(=O)Nc1cccc2scnc12 [Example 378, N-(benzo[d]thiazol-4-yl)-7-isopropoxy-2-(1-methyl-2-oxabicyclo[2.1.1]hexan-4-yl)imidazo[1,2-a]pyrimidine-6-carboxamide] | 0.0002 µM | –
CC(C)Oc1nc2nc(C34COC(C)(C3)C4)cn2cc1C(=O)Nc1cccc2ccnn12 [Example 385, 7-Isopropoxy-2-(1-methyl-2-oxabicyclo[2.1.1]hexan-4-yl)-N-(pyrazolo[1,5-a]pyridin-7-yl)imidazo[1,2-a]pyrimidine-6-carboxamide] | 0.0004 µM | –
CC12CCC(c3cn4cc(C(=O)Nc5ccn(CC(F)F)n5)c(OC5CCC5)cc4n3)(CO1)C2 (centres unmarked) [Example 543, 7-Cyclobutoxy-N-(1-(2,2-difluoroethyl)-1H-pyrazol-3-yl)-2-(1-methyl-2-oxabicyclo[2.2.1]heptan-4-yl)imidazo[1,2-a]pyridine-6-carboxamide] | 0.0044 µM | –
CCOc1nc(C(=O)Nc2cccnc2OC)cn2cc([C@]34CC[C@](C)(C3)OC4)nc12 (single isomer, unassigned) [Example 604] | 0.0003 µM | –
CC(Oc1cc2nc(C34COC(C)(C3)C4)cn2cc1C(=O)Nc1cccc(C(F)F)n1)C(F)(F)F (centres unmarked) [Example 323, N-(6-(difluoromethyl)pyridin-2-yl)-2-(1-methyl-2-oxabicyclo[2.1.1]hexan-4-yl)-7-((1,1,1-trifluoropropan-2-yl)oxy)imidazo[1,2-a]pyridine-6-carboxamide] | 0.0007 µM | –
CC(C)Oc1cc2nc(C34CCC(C)(C3)OC4)cn2cc1C(=O)Nc1cccn(C)c1=O (centres unmarked) [Example 505, 7-Isopropoxy-N-(1-methyl-2-oxo-1,2-dihydropyridin-3-yl)-2-(1-methyl-2-oxabicyclo[2.2.1]heptan-4-yl)imidazo[1,2-a]pyridine-6-carboxamide] | 0.0005 µM | –
CCOc1cc2nc([C@@H]3C[C@@H]3F)cn2cc1C(=O)Nc1cccc(OC)n1 [Example 80] | 0.029 µM | –
COc1ncccc1NC(=O)c1cn2cc([C@]34CC[C@](C)(C3)OC4)nc2nc1OC(C)C (single isomer, unassigned) [Example 579] | 0.0004 µM | –
CC(C)Oc1cc2nc(C34COC(C)(C3)C4)cn2cc1C(=O)Nc1cccc(C(F)(F)F)n1 [Example 245] | 0.0003 µM | –

SMILES | IC50 | IC50 [1]
COc1cc2nc(C3CCOCC3)cn2cc1C(=O)Nc1cccnc1OC [Example 193] | 0.0027 µM | –
Cn1ccc(NC(=O)c2cn3cc([C@@]45CC[C@@](C)(C4)OC5)nc3cc2OC2CCC2)n1 (single isomer, unassigned) [Example 610] | 0.0008 µM | –
COc1ccc2ncc(NC(=O)c3cn4cc(C56COC(C)(C5)C6)nc4cc3OC(C)C)n2n1 [Example 301, 7-Isopropoxy-N-(6-methoxyimidazo[1,2-b]pyridazin-3-yl)-2-(1-methyl-2-oxabicyclo[2.1.1]hexan-4-yl)imidazo[1,2-a]pyridine-6-carboxamide] | 0.0066 µM | –
Cn1ccc(NC(=O)c2cn3cc(C45COC(C)(C4)C5)nc3cc2OC2CCC2)n1 [Example 437, 7-Cyclobutoxy-N-(1-methyl-1H-pyrazol-3-yl)-2-(1-methyl-2-oxabicyclo[2.1.1]hexan-4-yl)imidazo[1,2-a]pyridine-6-carboxamide] | 0.0017 µM | –
CCOc1nc(C(=O)Nc2cc(F)cn(C)c2=O)cn2cc([C@H]3CCCOC3)nc12 (single isomer, unassigned) [Example 597] | 0.014 µM | –
COc1cc2nc(C3CCOCC3)cn2cc1C(=O)Nc1ncnc2cccnc12 [Example 204, 7-Methoxy-N-(pyrido[3,2-d]pyrimidin-4-yl)-2-(tetrahydro-2H-pyran-4-yl)imidazo[1,2-a]pyridine-6-carboxamide] | 0.429 µM | –
CC(C)Oc1cc2nc(C34COC(C3)C4)cn2cc1C(=O)Nc1ccn(C)n1 [Example 546, 2-(2-Oxabicyclo[2.1.1]hexan-4-yl)-7-isopropoxy-N-(1-methyl-1H-pyrazol-3-yl)imidazo[1,2-a]pyridine-6-carboxamide] | 0.0086 µM | –
COc1cccn2ncc(NC(=O)c3cn4cc(C56COC(C)(C5)C6)nc4c(OC(C)C)n3)c12 [Example 401, 8-Isopropoxy-N-(4-methoxypyrazolo[1,5-a]pyridin-3-yl)-2-(1-methyl-2-oxabicyclo[2.1.1]hexan-4-yl)imidazo[1,2-a]pyrazine-6-carboxamide] | 0.0002 µM | –
O=C(Nc1cccc(C(F)(F)F)n1)c1cn2cc(C3CCOCC3)nc2cn1 [Example 82] | 0.119 µM | –
COc1ncccc1NC(=O)c1cn2cc(C34COC(C)(C3)C4)nc2c(OC2CCC2)n1 [Example 347, 8-Cyclobutoxy-N-(2-methoxypyridin-3-yl)-2-(1-methyl-2-oxabicyclo[2.1.1]hexan-4-yl)imidazo[1,2-a]pyrazine-6-carboxamide] | 0.0006 µM | –
CC12CC(c3cn4cc(C(=O)Nc5ccn(C(F)F)n5)c(OCC5CC5)nc4n3)(CO1)C2 [Example 639, 7-(Cyclopropylmethoxy)-N-(1-(difluoromethyl)-1H-pyrazol-3-yl)-2-(1-methyl-2-oxabicyclo[2.1.1]hexan-4-yl)imidazo[1,2-a]pyrimidine-6-carboxamide] | 0.0181 µM | –
CCOc1nc(C(=O)Nc2cccc(C(F)F)n2)cn2cc([C@@]34CC[C@@](C)(C3)OC4)nc12 (single isomer, unassigned) [Example 601] | 0.0019 µM | –
COc1cccc(NC(=O)c2cn3cc(C(F)F)nc3cc2OC(C)C)n1 [Example 100] | 0.0178 µM | –
COc1cccc(NC(=O)c2cn3cc(C45COC(C)(C4)C5)nc3cc2OC(C)C)n1 [Example 97, 7-Isopropoxy-N-(6-methoxypyridin-2-yl)-2-(1-methyl-2-oxabicyclo[2.1.1]hexan-4-yl)imidazo[1,2-a]pyridine-6-carboxamide] | – | 0.0003 µM
CC(C)Oc1cc2nc([C@]34CC[C@H](C3)OC4)cn2cc1C(=O)Nc1ccn(C)n1 (single isomer, unassigned) [Example 581] | 0.0037 µM | –
CC(C)Oc1nc2nc(C34COC(C)(C3)C4)cn2cc1C(=O)Nc1ccc2c(n1)CCC2 [Example 366, N-(6,7-dihydro-5H-cyclopenta[b]pyridin-2-yl)-7-isopropoxy-2-(1-methyl-2-oxabicyclo[2.1.1]hexan-4-yl)imidazo[1,2-a]pyrimidine-6-carboxamide trifluoroacetate] | – | 0.0065 µM
CCOc1cc2nc([C@H]3C[C@@H]3F)cn2cc1C(=O)Nc1cccc(OC)n1 (single isomer, unassigned) [Example 66] | 0.025 µM | –
CC(C)Oc1cc2nc(C34COC(C)(C3)C4)cn2cc1C(=O)Nc1ccn(CC#N)n1 [Example 313, N-(1-(cyanomethyl)-1H-pyrazol-3-yl)-7-isopropoxy-2-(1-methyl-2-oxabicyclo[2.1.1]hexan-4-yl)imidazo[1,2-a]pyridine-6-carboxamide] | 0.0036 µM | –
CCOc1nc(C(=O)Nc2cccc(C(F)F)n2)cn2cc(C34CCC(C)(C3)OC4)nc12 (centres unmarked) [Example 274, N-(6-(difluoromethyl)pyridin-2-yl)-8-ethoxy-2-(1-methyl-2-oxabicyclo[2.2.1]heptan-4-yl)imidazo[1,2-a]pyrazine-6-carboxamide] | 0.0016 µM | –
